Data reported in patent US5939403A, “Keratan sulfate oligosaccharide fraction and pharmaceutical containing the same” (Seikagaku Corporation, priority 1994, dated 1999).
Counter-ions that a name gives are not always drawn.

Key:
MRL-lpr/lpr mice = test: Repeated intramuscular administration for 56 days in MRL mice (lymph node weight); assay type: in vivo
Method: The effect of the keratan sulfate oligosaccharide was examined on MRL mice which are autoimmune disease model mice.
The PBS solution of the purified keratan sulfate disaccharide (III) which was prepared in Example 1 described above at a dose of 2.5 mg/kg, 5 mg/kg, or 10 mg/kg weight (hereinafter referred to as the 2.5 mg/kg administered group, the 5 mg/kg administered group, and the 10 mg/kg administered group, respectively), and PBS as the control (hereinafter sometimes referred to as the control group) was intramuscularly injected, respectively, to the femoral region of MRL-lpr/lpr mice seven times a week for eight weeks. After that, the mice were subjected to anatomization, and the weight of mesenteric lymph nodes and submandibular lymph nodes were determined to obtain the average weight, respectively. The results concerning mesenteric lymph nodes and submandibular lymph nodes are shown in FIG. 15 and FIG. 16 with the standard errors, respectively. In each group, seven mice were used.

[1] = tested on: foot edema reversed passive Arthus reaction; test: Foot edema reversed passive Arthus reaction; assay type: in vivo, Male Crj:SD rats
Method: The effect of the keratan sulfate oligosaccharide was examined on the foot edema reversed passive Arthus reaction of rats, which is a type III allergic inflammation model. That is, the rabbit antiovalbumin serum was subcutaneously administered to the planta of the rats which were previously subjected to the administration of the test substances, furthermore ovalbumin was administered by injection into the caudal vein thereof to induce inflammation (edema), and the inhibitory effect on edema of the test substances was examined.
Male Crj:SD rats of five weeks old were subjected to a fast of about 17 hours after a week period of quarantine, and, before inducing inflammation, subjected to the administration of the purified keratan sulfate tetrasaccharide (I) which was prepared in Example 1, indomethacin (Sigma; Lot No. 19F0018), or dexamethasone (Banyu Pharmaceutical); Decadron injection; Lot No. 8D307P) as the test substances, or saline (Otsuka Pharmaceutical; Lot No. K3H72) as the negative control. The keratan sulfate tetrasaccharide (I) and dexamethasone were dissolved in saline, respectively, and the indomethacin was dissolved in 0.5% sodium carboxymethylcellulose (CMC-Na; Wako Pure Chemical Industries; Lot No. PTN1418) in use. The volume of dose was 0.5 ml per 100 g weight in each test. Concerning the route of administration, the keratan sulfate tetrasaccharide (I), saline, and dexamethasone were administered from the caudal vein, and the indomethacin was orally administered. And the substances except for indomethacin were administered by the blind method.
The dose and administration schedule of each test substance were as follows. Each group consisted of five animals.
The rabbit antiovalbumin serum was subcutaneously administered to each of the rats described above on the planta thereof, and ovalbumin was further administered by injection into the caudal vein to induce inflammation foot edema. The antiserum used was prepared as follows. That is, to the regions of back of rabbits, 1 ml of the equivalently mixed solution (emulsion) of the saline containing 2% ovalbumin (10 mg per one animal, Egg Albumin 5×Cryst, Lot No. P93601; Seikagaku Corporation) and the Freund's complete adjuvant (FCA) was intradermally injected once a week three times totally to subject themselves to sensitization. About 34 days after the last sensitization, the blood was drawn to obtain the antiserum. The antibody titer of the antiserum obtained was determined by the double layer method. Namely, the determination was performed using the white precipitation reaction of the antiserum diluted with saline and the saline containing 0.1% ovalbumin (1 mg/ml) as the indicator. As a result, the antibody titer of the antiserum obtained was x2^7.
After the period which is designed for each group, each 0.1 ml of the sixfold diluted antiserum was subcutaneously administered to the planta of left rear foot of the rats which were subjected to the administration of each test substance. Then, the saline containing 0.5% ovalbumin (25 mg/5 ml/kg) was administered into the caudal vein to induce inflammation. The volume of the treated feet in each group was determined before inducing inflammation, and one, two, three and four hours after inducing inflammation by a foot volume determining device (TK-101, Unicom) to yield the foot edematization rate from the difference from the value before the induction, and the edematization inhibitory rate of the test substance administered group to the control group was calculated. In each edematization rate obtained, the difference between the averages was tested by the minimum significant difference test. The foot edematization rate and the edematization inhibitory rate of each administered group are shown in Table 9, and the foot edematization rate of the administered groups which was subjected to the administration of the agent at five minutes and at three hours before inducing inflammation are shown in FIG. 6 and FIG. 7, respectively. […]

## CC(=O)N[C@H]1C(O)O[C@H](COS(=O)(=O)O)[C@@H](O[C@@H]2O[C@H](COS(=O)(=O)O)[C@H](O)[C@H](O)[C@H]2O)[C@@H]1O (stereo partly drawn) [keratan sulfate disaccharide (III), Gal(6S)β1-4GlcNAc(6S)]
MRL-lpr/lpr mice; 2.5 mg/kg i.m.
  weight increase in mesenteric lymph nodes (FIG. 15): a suppressive effect on the weight increase in mesenteric lymph nodes was observed
MRL-lpr/lpr mice; 10 mg/kg i.m.
  weight increase in mesenteric lymph nodes and submandibular lymph nodes (FIG. 15, FIG. 16): that in mesenteric lymph nodes and submandibular lymph nodes were observed

## CC(=O)N[C@H]1[C@H](O[C@H]2[C@@H](O)[C@@H](COS(=O)(=O)O)O[C@@H](O[C@H]3[C@H](O)[C@@H](NC(C)=O)C(O)O[C@@H]3COS(=O)(=O)O)[C@@H]2O)O[C@H](COS(=O)(=O)O)[C@@H](O[C@@H]2O[C@H](COS(=O)(=O)O)[C@H](O)[C@H](O)[C@H]2O)[C@@H]1O (stereo partly drawn) [keratan sulfate tetrasaccharide (I), Gal(6S)β1-4GlcNAc(6S)β1-3Gal(6S)β1-4GlcNAc(6S)]
[1]; 1 Hour Later, 1 mg/kg i.v. at 5 minutes before inducing edema
  Inhibitory Rate: 28.7%
[1]; 1 Hour Later, 1 mg/kg i.v. at 5 minutes before inducing edema, P < 0.01, control 40.9
  Edematization Rate: 29.2 ± 1.3%
[1]; 1 Hour Later, 1 mg/kg i.v. at 3 hours before inducing edema
  Inhibitory Rate: 13.4%
[1]; 1 Hour Later, 1 mg/kg i.v. at 3 hours before inducing edema, control 40.9
  Edematization Rate: 35.4 ± 1.6%
[1]; 1 Hour Later, 3 mg/kg i.v. at 5 minutes before inducing edema
  Inhibitory Rate: 15.8%
[1]; 1 Hour Later, 3 mg/kg i.v. at 5 minutes before inducing edema, control 40.9
  Edematization Rate: 34.4 ± 5.2%
[1]; 1 Hour Later, 3 mg/kg i.v. at 3 hours before inducing edema
  Inhibitory Rate: 10.6%
[1]; 1 Hour Later, 3 mg/kg i.v. at 3 hours before inducing edema, control 40.9
  Edematization Rate: 36.5 ± 3.5%
[1]; 1 Hour Later, 10 mg/kg i.v. at 5 minutes before inducing edema
  Inhibitory Rate: 28.9%
[1]; 1 Hour Later, 10 mg/kg i.v. at 5 minutes before inducing edema, P < 0.01, control 40.9
  Edematization Rate: 29.1 ± 3.7%
[1]; 1 Hour Later, 10 mg/kg i.v. at 3 hours before inducing edema
  Inhibitory Rate: -8.1%
[1]; 1 Hour Later, 10 mg/kg i.v. at 3 hours before inducing edema, control 40.9
  Edematization Rate: 44.2 ± 3.4%
[1]; 2 Hours Later, 1 mg/kg i.v. at 5 minutes before inducing edema
  Inhibitory Rate: 36.5%
[1]; 2 Hours Later, 1 mg/kg i.v. at 5 minutes before inducing edema, P < 0.01, control 46.3
  Edematization Rate: 29.4 ± 2.9%
[1]; 2 Hours Later, 1 mg/kg i.v. at 3 hours before inducing edema
  Inhibitory Rate: 8.4%
[1]; 2 Hours Later, 1 mg/kg i.v. at 3 hours before inducing edema, control 46.3
  Edematization Rate: 42.4 ± 3.6%
[1]; 2 Hours Later, 3 mg/kg i.v. at 5 minutes before inducing edema
  Inhibitory Rate: 8.6%
[1]; 2 Hours Later, 3 mg/kg i.v. at 5 minutes before inducing edema, control 46.3
  Edematization Rate: 42.3 ± 4.2%
[1]; 2 Hours Later, 3 mg/kg i.v. at 3 hours before inducing edema
  Inhibitory Rate: 23.9%
[1]; 2 Hours Later, 3 mg/kg i.v. at 3 hours before inducing edema, P < 0.01, control 46.3, 3 mg/kg
  Edematization Rate: 35.3%
[1]; 2 Hours Later, 3 mg/kg i.v. at 3 hours before inducing edema, P < 0.01, control 46.3, listed as Keratan Sulfate Tetrasaccharide (I), 3 mg/kg
  Edematization Rate: 35.3 ± 2.3%
[1]; 2 Hours Later, 10 mg/kg i.v. at 5 minutes before inducing edema
  Inhibitory Rate: 9.1%
[1]; 2 Hours Later, 10 mg/kg i.v. at 5 minutes before inducing edema, control 46.3
  Edematization Rate: 42.1 ± 2.9%
[1]; 2 Hours Later, 10 mg/kg i.v. at 3 hours before inducing edema
  Inhibitory Rate: 0.4%
[1]; 2 Hours Later, 10 mg/kg i.v. at 3 hours before inducing edema, control 46.3
  Edematization Rate: 46.1 ± 2.6%
[1]; 3 Hours Later, 1 mg/kg i.v. at 5 minutes before inducing edema
  Inhibitory Rate: 17.0%
[1]; 3 Hours Later, 1 mg/kg i.v. at 5 minutes before inducing edema, P < 0.01, control 51.2
  Edematization Rate: 42.3 ± 3.6%
[1]; 3 Hours Later, 1 mg/kg i.v. at 3 hours before inducing edema
  Inhibitory Rate: 8.4%
[1]; 3 Hours Later, 1 mg/kg i.v. at 3 hours before inducing edema, control 51.2
  Edematization Rate: 46.7 ± 2.6%
[1]; 3 Hours Later, 3 mg/kg i.v. at 5 minutes before inducing edema
  Inhibitory Rate: 9.5%
[1]; 3 Hours Later, 3 mg/kg i.v. at 5 minutes before inducing edema, control 51.2
  Edematization Rate: 46.1 ± 2.2%
[1]; 3 Hours Later, 3 mg/kg i.v. at 3 hours before inducing edema
  Inhibitory Rate: 21.5%
[1]; 3 Hours Later, 3 mg/kg i.v. at 3 hours before inducing edema, P < 0.01, control 51.2
  Edematization Rate: 40.1 ± 2.8%
[1]; 3 Hours Later, 10 mg/kg i.v. at 5 minutes before inducing edema
  Inhibitory Rate: 12.3%
[1]; 3 Hours Later, 10 mg/kg i.v. at 5 minutes before inducing edema, control 51.2
  Edematization Rate: 44.8 ± 5.1%
[1]; 3 Hours Later, 10 mg/kg i.v. at 3 hours before inducing edema
  Inhibitory Rate: 18.7%
[1]; 3 Hours Later, 10 mg/kg i.v. at 3 hours before inducing edema, P < 0.01, control 51.2, 10 mg/kg
  Edematization Rate: 41.5%
[1]; 3 Hours Later, 10 mg/kg i.v. at 3 hours before inducing edema, P < 0.01, control 51.2, listed as Keratan Sulfate Tetrasaccharide (I), 10 mg/kg
  Edematization Rate: 41.5 ± 1.8%
[1]; 4 Hours Later, 1 mg/kg i.v. at 5 minutes before inducing edema
  Inhibitory Rate: 11.3%
[1]; 4 Hours Later, 1 mg/kg i.v. at 5 minutes before inducing edema, control 44.9
  Edematization Rate: 39.8 ± 3.0%
[1]; 4 Hours Later, 1 mg/kg i.v. at 3 hours before inducing edema
  Inhibitory Rate: 15.5%
[1]; 4 Hours Later, 1 mg/kg i.v. at 3 hours before inducing edema, P < 0.05, control 44.9, 1 mg/kg
  Edematization Rate: 38%
[1]; 4 Hours Later, 1 mg/kg i.v. at 3 hours before inducing edema, P < 0.05, control 44.9, listed as Keratan Sulfate Tetrasaccharide (I), 1 mg/kg
  Edematization Rate: 38.0 ± 3.5%
[1]; 4 Hours Later, 3 mg/kg i.v. at 5 minutes before inducing edema
  Inhibitory Rate: 17.1%
[1]; 4 Hours Later, 3 mg/kg i.v. at 5 minutes before inducing edema, P < 0.05, control 44.9, 3 mg/kg
  Edematization Rate: 37.2%
[1]; 4 Hours Later, 3 mg/kg i.v. at 5 minutes before inducing edema, P < 0.05, control 44.9, listed as Keratan Sulfate Tetrasaccharide (I), 3 mg/kg
  Edematization Rate: 37.2 ± 3.1%
[1]; 4 Hours Later, 3 mg/kg i.v. at 3 hours before inducing edema
  Inhibitory Rate: 24.4%
[1]; 4 Hours Later, 3 mg/kg i.v. at 3 hours before inducing edema, P < 0.01, control 44.9
  Edematization Rate: 33.9%
[1]; 4 Hours Later, 10 mg/kg i.v. at 5 minutes before inducing edema
  Inhibitory Rate: 21.2%
[1]; 4 Hours Later, 10 mg/kg i.v. at 5 minutes before inducing edema, P < 0.01, control 44.9
  Edematization Rate: 35.4%
[1]; 4 Hours Later, 10 mg/kg i.v. at 3 hours before inducing edema
  Inhibitory Rate: 23.2%
[1]; 4 Hours Later, 10 mg/kg i.v. at 3 hours before inducing edema, P < 0.01, control 44.9
  Edematization Rate: 34.5%
[1]; after an hour, administration at five minutes before inducing inflammation
  foot edematization rate, significance (result in words): the significant difference was observed in the 1 mg/kg administered group and the 10 mg/kg administered group
[1]; an hour after inducing inflammation, administration at three hours before
  foot edematization rate, significance (result in words): significant difference was not observed an hour after inducing inflammation
